Target: T1, recombinant full-length USP7 (Homo sapiens, UniProt Q93009)
T1 construct: A 25 μl reaction volume containing recombinant full-length USP7 (62 pM)
Assay: USP7-mediated ubiquitin-rhodamine cleavage assay
Assay type: biochemical
Settings: recombinant full-length USP7 62 pM; ubiquitin-rhodamine 100 nM; 30-minute pre-incubation, 1 hour reaction at room temperature; read-out: Potency (USP7 IC50)
Procedure, shortened: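 Rhodamine fluorescence read-out after acetic acid stop; IC50 by 4-parameter nonlinear regression. Enzyme at 62 pM, substrate ubiquitin-rhodamine 100 nM final, 1 h at room temperature in the dark, after 30 min compound preincubation. Buffer: HEPES pH 7.3, NaCl, TCEP, BSA; 1% DMSO.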

T1 sequence (Q93009 whole entry): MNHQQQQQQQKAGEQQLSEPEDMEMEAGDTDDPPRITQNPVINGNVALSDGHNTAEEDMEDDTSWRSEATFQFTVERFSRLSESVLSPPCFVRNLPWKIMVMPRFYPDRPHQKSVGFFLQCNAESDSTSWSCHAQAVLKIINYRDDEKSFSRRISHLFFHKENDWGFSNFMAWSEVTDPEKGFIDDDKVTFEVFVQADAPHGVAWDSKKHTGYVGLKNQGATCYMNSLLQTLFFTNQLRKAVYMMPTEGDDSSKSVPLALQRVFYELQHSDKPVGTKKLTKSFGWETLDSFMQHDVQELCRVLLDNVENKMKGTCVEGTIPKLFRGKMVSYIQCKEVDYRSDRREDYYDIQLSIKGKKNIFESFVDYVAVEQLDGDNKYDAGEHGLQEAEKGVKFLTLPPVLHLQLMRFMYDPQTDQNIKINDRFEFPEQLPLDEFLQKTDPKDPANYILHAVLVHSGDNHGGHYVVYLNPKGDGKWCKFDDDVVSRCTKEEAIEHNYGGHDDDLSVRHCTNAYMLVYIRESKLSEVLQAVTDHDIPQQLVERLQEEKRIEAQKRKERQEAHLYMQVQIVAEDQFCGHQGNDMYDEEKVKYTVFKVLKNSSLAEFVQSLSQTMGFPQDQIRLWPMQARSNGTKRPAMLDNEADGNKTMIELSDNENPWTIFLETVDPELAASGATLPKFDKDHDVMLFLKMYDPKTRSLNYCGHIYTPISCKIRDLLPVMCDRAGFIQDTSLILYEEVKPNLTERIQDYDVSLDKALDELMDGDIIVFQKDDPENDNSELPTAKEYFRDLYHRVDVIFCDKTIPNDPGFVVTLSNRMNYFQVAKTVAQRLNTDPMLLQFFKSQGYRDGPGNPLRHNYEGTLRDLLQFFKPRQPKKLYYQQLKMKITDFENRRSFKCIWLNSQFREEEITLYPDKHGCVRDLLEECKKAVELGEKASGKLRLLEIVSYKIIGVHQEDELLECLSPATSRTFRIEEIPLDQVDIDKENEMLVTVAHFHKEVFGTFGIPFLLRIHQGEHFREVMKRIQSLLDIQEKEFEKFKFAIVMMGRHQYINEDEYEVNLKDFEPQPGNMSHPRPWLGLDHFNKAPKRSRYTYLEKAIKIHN

Cc1cc(Cl)cc(-c2ccnc3cc(Cn4c(=O)ccn(C)c4=O)sc23)c1OC1CC2CC1N(C(C)C)C2 (centres unmarked) [Example 474, 3-[[7-[5-chloro-2-[(3-isopropyl-3-azabicyclo[2.2.1]heptan-5-yl)oxy]-3-methyl-phenyl]thieno[3,2-b]pyridin-2-yl]methyl]-1-methyl-pyrimidine-2,4-dione]
IC50: < 1000 nM

Cc1cc(Cl)cc(-c2ccnc3cc(Cn4c(=O)ccn(C)c4=O)sc23)c1O[C@@H]1CCN(CCO)C[C@@H]1C [Example 475, 3-[[7-[5-chloro-2-[[(3S,4R)-1-(2-hydroxyethyl)-3-methyl-4-piperidyl]oxy]-3-methyl-phenyl]thieno[3,2-b]pyridin-2-yl]methyl]-1-methyl-pyrimidine-2,4-dione]
IC50: < 1000 nM

Cc1cc(Cl)cc(-c2ccnc3cc(Cn4c(=O)ccn(C)c4=O)sc23)c1OC1CC2CC1CN2 (centres unmarked) [Example 476, 3-[[7-[2-(2-azabicyclo[2.2.1]heptan-5-yloxy)-5-chloro-3-methyl-phenyl]thieno[3,2-b]pyridin-2-yl]methyl]-1-methyl-pyrimidine-2,4-dione; 2,2,2-trifluoroacetic acid]
IC50: < 1000 nM

Cc1cc(Cl)cc(-c2ccnc3cc(Cn4c(=O)ccn(C5CCC5)c4=O)sc23)c1O[C@H]1CCCNC1 [Example 477, 3-[[7-[5-chloro-3-methyl-2-[[(3S)-3-piperidyl]oxy]phenyl]thieno[3,2-b]pyridin-2-yl]methyl]-1-cyclobutyl-pyrimidine-2,4-dione]
IC50: < 1000 nM

Cc1cc(Cl)cc(-c2ccnc3cc(Cn4c(=O)c(C)cn(C)c4=O)sc23)c1O[C@H]1CCCNC1 [Example 478, 3-[[7-[5-chloro-3-methyl-2-[[(3S)-3-piperidyl]oxy]phenyl]thieno[3,2-b]pyridin-2-yl]methyl]-1,5-dimethyl-pyrimidine-2,4-dione; 2,2,2-trifluoroacetic acid]
IC50: < 1000 nM

Cc1cc(Cl)cc(-c2ccnc3cc(Cn4c(=O)[nH]cc(C)c4=O)sc23)c1O[C@H]1CCCNC1 [Example 479, 3-[[7-[5-chloro-3-methyl-2-[[(3S)-3-piperidyl]oxy]phenyl]thieno[3,2-b]pyridin-2-yl]methyl]-5-methyl-1H-pyrimidine-2,4-dione]
IC50: < 1000 nM

Cc1cc(Cl)cc(-c2ccnc3cc(Cn4c(=O)c(C)cn(C)c4=O)sc23)c1O[C@@H]1CNC[C@@H]1F [Example 480, 3-[[7-[5-chloro-2-[(3R,4S)-4-fluoropyrrolidin-3-yl]oxy-3-methyl-phenyl]thieno[3,2-b]pyridin-2-yl]methyl]-1,5-dimethyl-pyrimidine-2,4-dione]
IC50: < 1000 nM

CO[C@@H]1CC(=O)N(Cc2cc3nccc(-c4cc(Cl)cc(C)c4O[C@H]4CCCNC4)c3s2)C1=O [Example 481, (3R)-1-[[7-[5-chloro-3-methyl-2-[[(3S)-3-piperidyl]oxy]phenyl]thieno[3,2-b]pyridin-2-yl]methyl]-3-methoxy-pyrrolidine-2,5-dione; 2,2,2-trifluoroacetic acid]
IC50: < 1000 nM

CCN1CC[C@H](Oc2c(C)cc(Cl)cc2-c2ccnc3cc(Cn4c(=O)ccn(C)c4=O)sc23)[C@@H](F)C1 [Example 482, 3-[[7-[5-chloro-2-[[(3S,4S)-1-ethyl-3-fluoro-4-piperidyl]oxy]-3-methyl-phenyl]thieno[3,2-b]pyridin-2-yl]methyl]-1-methyl-pyrimidine-2,4-dione; 2,2,2-trifluoroacetic acid]
IC50: < 1000 nM

Cc1cc(Cl)cc(-c2ccnc3cc(Cn4c(=O)ccn(C)c4=O)sc23)c1O[C@H]1CCN(CCO)C[C@@H]1F [Example 483, 3-[[7-[5-chloro-2-[[(3S,4S)-3-fluoro-1-(2-hydroxyethyl)-4-piperidyl]oxy]-3-methyl-phenyl]thieno[3,2-b]pyridin-2-yl]methyl]-1-methyl-pyrimidine-2,4-dione; 2,2,2-trifluoroacetic acid]
IC50: < 1000 nM

Cc1cc(Cl)cc(-c2ccnc3cc(Cn4c(=O)ccn(CC(F)(F)F)c4=O)sc23)c1O[C@H]1CCCNC1 [Example 484, 3-[[7-[5-chloro-3-methyl-2-[[(3S)-3-piperidyl]oxy]phenyl]thieno[3,2-b]pyridin-2-yl]methyl]-1-(2,2,2-trifluoroethyl)pyrimidine-2,4-dione]
IC50: < 1000 nM

Cc1cc(Cl)cc(-c2ccnc3cc(Cn4c(=O)ccn(CC(F)(F)F)c4=O)sc23)c1O[C@@H]1CNC[C@@H]1F [Example 485, 3-[[7-[5-chloro-2-[(3R,4S)-4-fluoropyrrolidin-3-yl]oxy-3-methyl-phenyl]thieno[3,2-b]pyridin-2-yl]methyl]-1-(2,2,2-trifluoroethyl)pyrimidine-2,4-dione]
IC50: < 1000 nM

Cc1cc(Cl)cc(-c2ccnc3cc(Cn4c(=O)ccn(C)c4=O)sc23)c1O[C@@H]1CN[C@H](C(=O)O)C1 [Example 486, (2S,4S)-4-[4-chloro-2-methyl-6-[2-[(3-methyl-2,6-dioxo-pyrimidin-1-yl)methyl]thieno[3,2-b]pyridin-7-yl]phenoxy]pyrrolidine-2-carboxylic acid]
IC50: < 1000 nM

Cc1cc(Cl)cc(-c2ccnc3cc(Cn4c(=O)ccn(C)c4=O)sc23)c1OCC1CNC1 [Example 487, 3-[[7-[2-(azetidin-3-ylmethoxy)-5-chloro-3-methyl-phenyl]thieno[3,2-b]pyridin-2-yl]methyl]-1-methyl-pyrimidine-2,4-dione]
IC50: < 1000 nM

Cc1cc(Cl)cc(-c2ccnc3cc(Cn4c(=O)ccn(C)c4=O)sc23)c1O[C@@H]1CCN(C(C)C)C[C@@H]1C [Example 488, 3-[[7-[5-chloro-2-[[(3S,4R)-1-isopropyl-3-methyl-4-piperidyl]oxy]-3-methyl-phenyl]thieno[3,2-b]pyridin-2-yl]methyl]-1-methyl-pyrimidine-2,4-dione]
IC50: < 1000 nM

Cc1cc(Cl)cc(-c2ncnc3cc(Cn4c(=O)ccn(C(C)C)c4=O)sc23)c1O[C@H]1CCCNC1 [Example 489, 3-[[4-[5-chloro-3-methyl-2-[[(3S)-3-piperidyl]oxy]phenyl]thieno[3,2-d]pyrimidin-6-yl]methyl]-1-isopropyl-pyrimidine-2,4-dione]
IC50: < 1000 nM

Cc1cc(Cl)cc(-c2ccnc3cc(Cn4c(=O)ccn(C)c4=O)sc23)c1O[C@H]1CCN(C)C(C)(C)C1 [Example 490]
IC50: < 1000 nM

CCN1CC[C@H](Oc2c(C)cc(Cl)cc2-c2ccnc3cc(Cn4c(=O)ccn(C)c4=O)sc23)CC1(C)C [Example 491, 3-[[7-[5-chloro-2-[[(4S)-1-ethyl-2,2-dimethyl-4-piperidyl]oxy]-3-methyl-phenyl]thieno[3,2-b]pyridin-2-yl]methyl]-1-methyl-pyrimidine-2,4-dione; 2,2,2-trifluoroacetic acid]
IC50: < 1000 nM

Cc1cc(Cl)cc(-c2ccnc3cc(Cn4c(=O)ccn(C)c4=O)sc23)c1O[C@H]1CCCN(C)CC1 [Example 492, 3-[[7-[5-chloro-3-methyl-2-[(4S)-1-methylazepan-4-yl]oxy-phenyl]thieno[3,2-b]pyridin-2-yl]methyl]-1-methyl-pyrimidine-2,4-dione]
IC50: < 1000 nM

CCN1CCC[C@H](Oc2c(C)cc(Cl)cc2-c2ccnc3cc(Cn4c(=O)ccn(C)c4=O)sc23)CC1 [Example 493, 3-[[7-[5-chloro-2-[(4S)-1-ethylazepan-4-yl]oxy-3-methyl-phenyl]thieno[3,2-b]pyridin-2-yl]methyl]-1-methyl-pyrimidine-2,4-dione]
IC50: < 1000 nM
